Experimental data taken from patent US5336496A, “Inhibitor for delta 5-desaturase” (Suntory Limited, priority 1989, dated 1994).
Read-outs that look alike come from different tables or passages of the source.

Legend:
Δ^6 -desaturase = target: T1, Δ^6 -desaturase (Rattus norvegicus, UniProt Q9Z122); test: Inhibition of Δ6-desaturase in rat liver microsome ([1-14C]-linoleic acid substrate); format: biochemical, rat (Wister male); settings: read-out: Inhibition on Δ^6 - (%)
T1 construct: The pellet was suspended in the homogenization solution to obtain a microsome solution; from tissue; host or cells: liver microsomes of a male Wistar rat

Δ^5 -desaturase = target: T2, Δ^5 -desaturase (Rattus norvegicus, UniProt Q920R3); test: Inhibition of Δ5-desaturase in rat liver microsome (conversion of [2-14C]-dihomo-γ-linolenic acid to arachidonic acid); format: biochemical, rat (Wister male); settings: for inhibition at 30 µg/mL: read-out: Inhibition on Δ^5 -desaturase (%); for specific inhibition of Δ^5 -desaturase / inhibition of Δ^5 -desaturation reaction from dihomo-γ-linolenic acid to arachidonic acid: in words; for specific inhibition of Δ^5 -desaturase: figure legends, compared with Δ^6 -desaturase (and Δ^9 -desaturase for sesamin); for inhibition of Δ^5 -desaturation reaction from dihomo-γ-linolenic acid to arachidonic acid: 0.001 to 0.5 mg/ml, FIGS. 1, 2 and 3, rat liver microsome
T2 construct: from tissue; host or cells: liver microsomes of a male Wistar rat
Protocol: As a homogenization solution, a 50 mM phosphate buffer (pH 7.4) containing 0.15M KCl, 5 mM MgCl2.6H2 O, 1 mM EDTA, 0.25M saccharose and 1.5 mM glutathione was used. The liver of a Wister male rat was perfused with physiological saline and removed, and to the removed liver was added 4-fold by weight of the homogenization solution, and the whole was homogenized. The homogenate was centrifuged at 10,000×g for 20 minutes to obtain a supernatant, which was centrifuged at 100,000×g for one hour to obtain a pellet. The pellet was suspended in the homogenization solution to obtain a microsome solution containing 12.24 mg/ml protein. The above-mentioned procedures were carried out at 4° C.
To assay the Δ^5 -desaturase activity 100 μl of the rat liver microsome solution was added to 1 ml of 0.1M phosphate buffer (PH7.4) containing 0.25M saccharose, 0.15M KCl, 1.5 mM glutathione, 45 mM NaF, 0.5 mM nicotinamide, 5 mM MgCl2.6H20 O, 7.5 mM ATP, 0.4 mM CoA.Na2, 1.5 mM NADH, and 100 μM dihomo-γ-linolenic acid containing 0.1 μCi (1.7 nmoles) [2-^14 C]-dihomo-γ-linolenic acid per 1 ml, the mixture was incubated at 37° C for one hour, followed by an addition of 5 ml of ethanol to terminate the reaction. To the reaction mixture was added 1 ml of 4N KOH, and mixture was incubated at 60° C for 30 minutes for saponification. After the reaction, 3 ml of water, 100 μg of dihomo-γ-linolenic acid and 1 ml of 6N HCl were added thereon, and fatty acids in the reaction mixture were extracted twice with 5 ml of hexane. The extract was evaporated in a centrifuge evaporator and 1 ml of ethyl ether/methanol (9:1) was added to the residue, and the fatty acids were methylated with diazomethane. After allowing to stand at a room temperature for 30 minutes, the reaction mixture was evaporated in a centrifuge evaporator to remove the solvent, whereby methyl esters of the resulting fatty acids were obtained. The esters were separated on a 10% AgNO3 silica gel plate using petroleum ether/ethyl ether (1:1) as a developing solvent. Silica gel portions corresponding to the substrate dihomo-γ-linolenic acid and the product arachidonic acid respectively were peeled off, and to 5 ml of toluene-based scintillation fluid solution was added to the silica gel to measure the radioactivity by a scintillation counter. The radioactivity of the generated arachidonic acid was determined by subtracting a radioactivity at the onset of the reaction from a radioactivity after the reaction.
The enzyme inhibitory activities of sesamin, episesamin and sesamomolin were measured according to the above-mentioned procedure, except that the reaction mixture contained 0.001 to 0.5 mg/ml sesamin, episesamin or sesamolin. The radioactivity was measured as described above, and the percent inhibition was calculated.

T2 sequence (Q920R3 whole entry, stated change not applied): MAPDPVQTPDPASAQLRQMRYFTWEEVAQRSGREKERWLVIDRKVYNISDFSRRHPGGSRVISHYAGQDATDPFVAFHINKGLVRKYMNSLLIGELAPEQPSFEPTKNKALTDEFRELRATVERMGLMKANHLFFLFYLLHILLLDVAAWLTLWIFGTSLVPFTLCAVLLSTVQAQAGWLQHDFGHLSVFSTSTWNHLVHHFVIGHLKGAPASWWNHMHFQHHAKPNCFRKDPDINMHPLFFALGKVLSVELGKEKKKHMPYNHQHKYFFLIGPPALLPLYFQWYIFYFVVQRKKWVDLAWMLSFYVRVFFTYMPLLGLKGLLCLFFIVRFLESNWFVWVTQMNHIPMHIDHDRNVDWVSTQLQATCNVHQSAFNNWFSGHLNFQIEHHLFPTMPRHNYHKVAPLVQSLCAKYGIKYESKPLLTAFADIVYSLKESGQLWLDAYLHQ
T1 sequence (Q9Z122 whole entry, stated change not applied): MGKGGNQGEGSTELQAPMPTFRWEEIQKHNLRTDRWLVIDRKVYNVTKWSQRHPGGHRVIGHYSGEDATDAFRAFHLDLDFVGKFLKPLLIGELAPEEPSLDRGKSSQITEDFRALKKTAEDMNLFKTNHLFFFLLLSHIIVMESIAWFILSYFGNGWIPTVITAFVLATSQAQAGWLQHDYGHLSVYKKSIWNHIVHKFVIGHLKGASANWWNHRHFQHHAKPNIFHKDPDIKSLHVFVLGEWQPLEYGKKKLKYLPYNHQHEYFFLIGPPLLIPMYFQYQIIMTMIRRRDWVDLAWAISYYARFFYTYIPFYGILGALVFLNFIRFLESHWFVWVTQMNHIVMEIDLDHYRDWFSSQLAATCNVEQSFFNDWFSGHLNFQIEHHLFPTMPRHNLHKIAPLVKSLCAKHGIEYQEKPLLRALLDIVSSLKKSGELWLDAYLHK

Row | inhibition at 30 µg/mL (Δ^6 -desaturase; 0.03 mg/ml, rat liver microsome) [%] | SMILES | inhibition at 30 µg/mL (Δ^6 -desaturase) [%] | inhibition at 30 µg/mL (Δ^5 -desaturase) [%] | specific inhibition of Δ^5 -desaturase (Δ^5 -desaturase) | inhibition of Δ^5 -desaturation reaction from dihomo-γ-linolenic acid to arachidonic acid (Δ^5 -desaturase)
1 |  | CCCCOCCOCCOCc1cc2c(cc1CCC)OCO2 [Piperonyl butoxide] | 0 | 32.5 |  | 
2 |  | c1cc2c(cc1[C@H]1OC[C@H]3[C@@H]1CO[C@@H]3c1ccc3c(c1)OCO3)OCO2 [Sesamin] | 0 | 39.2 | specifically inhibits | inhibited
3 |  | c1cc2c(cc1O[C@H]1OC[C@H]3[C@@H]1CO[C@@H]3c1ccc3c(c1)OCO3)OCO2 [Sesamolin] |  |  | specifically inhibits | inhibited
4 | 36.1 | COc1cc(/C=C/C(=O)CC(=O)/C=C/c2ccc(O)c(OC)c2)ccc1O [Curcumin] |  |  |  | 
